Results published in patent US20060269935A1, “Genetic predictor for clinical use of drugs used in the treatment of neurological conditions” (UCL Biomedica PLC, priority 2005, published 2006).
Like-named read-outs stand apart in the source and are kept apart here.

Columns and labels:
[1] = system: patients with a diagnosis of epilepsy; conditions: human, in vivo
Excerpt: In this study we have considered the known functional alleles *2 and *3 at the CYP2C9 gene, and the putatively functional 3435C>T polymorphism in the ABCB1 gene. As no common functional variants are known for SCN1A, we used a haplotype tagging strategy (Weale et al., Am J. Hum. Genet. 73, 551-565, 2003). […] For carbamazepine, we related variation in both SCN1A and ABCB1 to maximum dose in 425 patients. Finally, we tested for association with presence or absence of ADRs. […] In most, but not all cases the maximum dose used here will also be the maintenance dose, since starting doses tend to be lower than what is required (see discussion below).
The study was approved by the relevant institutional Ethics Committees. Patients who self-identified, or were determined by the treating physician, as being of North Western European origin with a diagnosis of epilepsy were recruited from the specialised epilepsy clinic of the National Hospital for Neurology and Neurosurgery after written informed consent was obtained. Extensive clinical data were obtained and stored in a computerized database. […]
The following clinical details were recorded whenever available: date when phenytoin/carbamazepine was started and stopped, maximum dosage reached, response and occurrence of ADRs. […]

[2] = target: CYP2C9*2 (Homo sapiens, UniProt P11712, R144C); conditions: in vitro expression; cited from earlier work
[3] = cited from earlier work; for Serum concentrations of phenytoin: single dose, healthy volunteers
[4] = target: CYP2C9 (Homo sapiens, UniProt P11712); conditions: estimated; cited from earlier work

Average dose range across genotypes [1] | Compound | Reduction in phenytoin clearance compared to *1 [2] | Serum concentrations of phenytoin ([3]; *2 carriers) | Maximal elimination rates ([3]; *3 carriers compared with *1/1 patients) | Serum concentrations of phenytoin ([3]; *3 carriers) | Share of phenytoin inactivation for which CYP2C9 is responsible [4]
127 mg | O=C1NC(=O)C(c2ccccc2)(c2ccccc2)N1 [phenytoin, 5,5-diphenylhydantoin] | 29% reduction in | *2 carriers have increased serum | *3 carriers have significantly lower | patients(33, 34) and increased serum | up to 90%
230 mg | NC(=O)N1c2ccccc2C=Cc2ccccc21 [carbamazepine, 5H-dibenz[b,f]azepine-5-carboxamide] |  |  |  |  | 
